# Source: patent US20040253718A1, “Methods of producing neurons” (priority 2003, published 2004)
# How the values were obtained:
# dermal-derived UMC = test: Culture of UMC in plasma clots to generate neurons; type: cell-based, human; conditions: aFGF as the only growth factor in the culture medium
# Description: The presence of higher concentration of Ca^2+ than normally present in culture medium (i.e., about 2 mM) was essential for growth of neurons in the plasma clot UMC cultures.
# Lyophilized bovine plasma (Sigma Aldrich Co., St. Louis, Mo.; Cat. No. P-4639) was reconstituted with an appropriate volume of tissue culture medium not containing heparin, e.g., DMEM or Neurobasal medium (see above). An appropriate volume of a stock solution of CaCl2 (e.g., 300 mM) was added to a series of plastic tissue culture dishes (one set having a diameter of 30 mm and another set having a diameter of 60 mm) so as to give a final concentration of 15 mM after addition of plasma. Plasma was added to the culture dishes (1 ml to 30 mm dishes and 2 ml to the 60 mm dishes), which were swirled in order to mix the CaCl2 and plasma. […]
# The dishes were then incubated at room temperature or 37° C. until the plasma had clotted. […] The dishes were then stored in a tissue culture incubator at 37° C. in at atmosphere of 10% CO2 until ready for use. A small quantity (about 5 cells to about 10^5 cells per clot) of dermal-derived UMC prepared as described in Example 1 was added to each dish and the cells were allowed to settle onto each clot. […]
# [1] = test system: UMC from skin and adipose tissue; test: Culture of non-adherent UMC from skin and adipose tissue; type: cell-based, human
# Description: Cells were harvested and enriched in vitro for UMC by initiation of cultures from a skin biopsy obtained from a normal healthy human volunteer as follows. Biopsies of about 10 to about 200 mm^3 were obtained from the post auriculum area, and fibroblast tissue culture initiated as described above using DMEM containing 4500 mg/L D-glucose, 2 mM L-glutamine, nonessential amino acids, and 10% FBS. Colonies of non-adherent, actively growing cells were observed after adherent fibroblasts had reached full confluence in passage two or three. This process could be shortened by initiation of the culture in low serum and by the presence of 5 ng/ml aFGF, or by growth of the cells in a plasma clot directly from tissue (see Example 2) with addition of 300 mM CaCl2 to a final concentration of 15 mM. […] The colonies were collected by aspiration of culture medium containing the floating colonies and centrifugation of this medium. The cells pelleted by centrifugation were transferred to new tissue culture vessels by direct seeding in fresh culture medium containing aFGF and heparin (DMEM containing 4500 mg/L D-glucose, 2 mM L-glutamine, 2.5% heat inactivated FBS, 5 ng/mL recombinant human aFGF, and 5 μg/mL heparin). The cell suspension was added to fresh tissue culture flasks, which were incubated at 37° C. […]
substance,measurement,setting,value
aFGF: recombinant human acidic fibroblast growth factor,growth of human neurons,dermal-derived UMC,Enhanced growth
same,morphology of cells in culture,[1]; in the presence of aFGF,morphologically homogeneous in appearance and had a cobblestone-like morphology
same,fate of cells in culture,[1]; upon removal of aFGF from the culture medium,most of the cells fully differentiated into adherent fibroblasts
